This is an account of results in ChEMBL document CHEMBL1138857, “Quinol-4-ones as steroid A-ring mimetics in nonsteroidal dissociated glucocorticoid agonists” (J Med Chem, 2006).

One assay concerns the target T1, Progesterone receptor (Homo sapiens, UniProt P06401).
T1 sequence (P06401 whole entry): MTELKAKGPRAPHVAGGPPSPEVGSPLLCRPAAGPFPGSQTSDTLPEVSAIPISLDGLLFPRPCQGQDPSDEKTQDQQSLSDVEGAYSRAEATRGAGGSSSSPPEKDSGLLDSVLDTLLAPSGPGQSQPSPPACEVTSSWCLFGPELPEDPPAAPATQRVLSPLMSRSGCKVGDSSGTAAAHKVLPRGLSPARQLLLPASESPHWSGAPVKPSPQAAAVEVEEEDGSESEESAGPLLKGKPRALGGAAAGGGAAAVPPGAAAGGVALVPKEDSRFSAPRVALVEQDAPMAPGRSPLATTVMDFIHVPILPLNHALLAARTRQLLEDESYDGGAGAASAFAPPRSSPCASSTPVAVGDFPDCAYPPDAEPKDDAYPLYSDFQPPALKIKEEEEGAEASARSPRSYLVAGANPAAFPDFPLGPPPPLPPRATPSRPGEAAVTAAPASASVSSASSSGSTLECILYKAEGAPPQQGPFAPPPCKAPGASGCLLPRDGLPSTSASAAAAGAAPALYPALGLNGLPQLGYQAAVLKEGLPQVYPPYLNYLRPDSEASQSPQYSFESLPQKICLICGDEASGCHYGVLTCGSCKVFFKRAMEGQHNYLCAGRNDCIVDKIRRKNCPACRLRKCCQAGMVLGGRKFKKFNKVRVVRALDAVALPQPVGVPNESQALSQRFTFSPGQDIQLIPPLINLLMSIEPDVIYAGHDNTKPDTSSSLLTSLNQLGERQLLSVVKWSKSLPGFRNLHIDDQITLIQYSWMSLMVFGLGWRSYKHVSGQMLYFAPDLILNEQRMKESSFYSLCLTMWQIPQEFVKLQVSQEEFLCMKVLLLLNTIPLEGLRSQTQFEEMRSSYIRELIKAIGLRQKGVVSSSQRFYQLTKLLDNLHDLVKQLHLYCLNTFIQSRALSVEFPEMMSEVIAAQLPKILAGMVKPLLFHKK
Briefly: Inhibition of tetramethylrhodamine labeled RU486 binding to PR by FP assay.

A further assay has as its target T2, Glucocorticoid receptor (Homo sapiens, UniProt P04150).
T2 sequence (P04150 whole entry): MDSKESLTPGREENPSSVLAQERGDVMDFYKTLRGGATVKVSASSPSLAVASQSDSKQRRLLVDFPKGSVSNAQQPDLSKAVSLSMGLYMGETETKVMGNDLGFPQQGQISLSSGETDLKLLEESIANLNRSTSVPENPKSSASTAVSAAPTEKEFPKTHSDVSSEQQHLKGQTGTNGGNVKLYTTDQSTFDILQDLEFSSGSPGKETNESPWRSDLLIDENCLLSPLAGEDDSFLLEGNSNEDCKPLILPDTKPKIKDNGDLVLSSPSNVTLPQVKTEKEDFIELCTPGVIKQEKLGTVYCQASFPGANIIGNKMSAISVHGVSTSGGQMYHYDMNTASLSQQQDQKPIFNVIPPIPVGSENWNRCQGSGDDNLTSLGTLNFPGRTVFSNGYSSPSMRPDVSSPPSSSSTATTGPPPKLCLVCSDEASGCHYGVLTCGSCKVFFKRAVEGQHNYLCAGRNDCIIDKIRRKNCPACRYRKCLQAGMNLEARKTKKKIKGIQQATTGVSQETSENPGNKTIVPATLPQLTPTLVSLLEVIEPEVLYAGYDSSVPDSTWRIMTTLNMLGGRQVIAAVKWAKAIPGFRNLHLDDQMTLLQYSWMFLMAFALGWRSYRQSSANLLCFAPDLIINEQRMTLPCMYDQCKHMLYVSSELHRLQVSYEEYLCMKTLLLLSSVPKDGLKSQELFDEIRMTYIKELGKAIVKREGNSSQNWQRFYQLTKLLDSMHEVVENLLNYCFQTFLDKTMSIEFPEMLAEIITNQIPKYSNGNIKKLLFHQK

Assay [1] has as its system HFF. Briefly: Inhibition of IL1-stimulated IL6 production in HFF cells. The conditions noted are these: Homo sapiens. It is filed as functional, cell-based.
Assay [2] relates to HFF. Briefly: Inhibition of IL1-stimulated IL6 production in HFF cells relative to Dexamethasone. It is filed as functional, Homo sapiens.
The target of assay [3] is T3, Mineralocorticoid receptor (Homo sapiens, UniProt P08235).
T3 sequence (P08235 whole entry): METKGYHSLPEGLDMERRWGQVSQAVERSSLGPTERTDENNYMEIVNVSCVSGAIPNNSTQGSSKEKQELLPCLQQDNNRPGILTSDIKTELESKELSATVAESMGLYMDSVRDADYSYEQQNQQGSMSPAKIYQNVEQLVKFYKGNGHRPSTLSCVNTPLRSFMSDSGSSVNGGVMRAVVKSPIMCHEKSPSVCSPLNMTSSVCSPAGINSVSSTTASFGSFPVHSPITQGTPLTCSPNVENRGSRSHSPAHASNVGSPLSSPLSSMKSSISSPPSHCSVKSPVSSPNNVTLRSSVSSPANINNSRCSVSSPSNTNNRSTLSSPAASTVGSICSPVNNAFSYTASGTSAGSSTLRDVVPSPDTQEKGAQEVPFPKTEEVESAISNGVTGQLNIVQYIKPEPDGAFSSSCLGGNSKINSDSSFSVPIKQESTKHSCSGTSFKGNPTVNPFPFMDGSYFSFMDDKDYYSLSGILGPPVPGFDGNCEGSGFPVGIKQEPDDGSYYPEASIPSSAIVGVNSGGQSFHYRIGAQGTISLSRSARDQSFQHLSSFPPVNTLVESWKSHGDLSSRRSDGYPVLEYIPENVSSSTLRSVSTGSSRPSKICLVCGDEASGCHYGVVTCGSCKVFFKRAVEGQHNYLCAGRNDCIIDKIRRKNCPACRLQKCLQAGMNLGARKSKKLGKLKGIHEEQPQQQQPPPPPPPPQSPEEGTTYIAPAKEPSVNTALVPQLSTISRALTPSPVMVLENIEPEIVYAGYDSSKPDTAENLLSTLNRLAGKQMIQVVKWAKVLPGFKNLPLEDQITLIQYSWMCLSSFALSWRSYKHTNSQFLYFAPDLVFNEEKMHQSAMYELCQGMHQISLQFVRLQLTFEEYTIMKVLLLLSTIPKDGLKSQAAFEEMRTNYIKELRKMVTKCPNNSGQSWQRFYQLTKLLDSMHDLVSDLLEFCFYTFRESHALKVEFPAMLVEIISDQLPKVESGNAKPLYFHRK
Kind of assay: Inhibition of tetramethylrhodamine labeled dexamethasone binding to MR by FP assay.

The test system of assay [4] is HFF. Briefly: Induction of aromatase activity in HFF cells assessed as production of beta estradiol by aromatase assay. The class given is functional, cell-based. The conditions noted are these: Homo sapiens.
Assay [5] concerns HeLa. Briefly: Activation of MMTV in HeLa cells measured by luciferase activity. The conditions noted are these: Homo sapiens. The class given is functional, cell-based.
The test system of assay [6] is HFF. Kind of assay: Induction of aromatase activity in HFF cells assessed as production of beta estradiol by aromatase assay relative to Dexamethasone. It is filed as functional, Homo sapiens.
Assay [7] concerns HeLa. Briefly: Activation of MMTV in HeLa cells measured by luciferase activity relative to Dexamethasone. The class given is functional, Homo sapiens.

As to `COc1ccc(F)cc1C(C)(C)CC(O)(C(=O)Nc1ccc2c(=O)onc(C)c2c1)C(F)(F)F` (stereo unspecified), the IC50 – broadly, the point on the concentration scale where inhibition reaches its midpoint – was 22 nM at Progesterone receptor, 8 nM on Glucocorticoid receptor, greater than 2000 nM in the assay on HFF [1] and 130 nM in assay [3]. This compound also had an Efficacy with HFF [2] of 19%.
`COc1ccc(F)cc1C(C)(C)CC(O)(Cn1ccc(=O)cc1)C(F)(F)F` (stereo unspecified): the IC50 (at Progesterone receptor; against Glucocorticoid receptor; in [3]) was greater than 2000 nM each time.
As to `C[C@@H]1C[C@H]2[C@@H]3CCC4=CC(=O)C=C[C@]4(C)[C@@]3(F)[C@@H](O)C[C@]2(C)[C@@]1(O)C(=O)CO` [DEXAMETHASONE], the EC50 – broadly, the concentration that produces a half-maximal response – is 1.9 nM with HFF [4] and 17 nM with HeLa [5]. The results for the IC50 at Progesterone receptor and in the assay on HFF [1] were greater than 2000 nM and 0.51 nM, respectively.
On to `CC(C)(CC(O)(Cn1ccc(=O)c2ccccc21)C(F)(F)F)c1ccccc1` (stereo unspecified), for which the concentration for half-maximal inhibition (IC50) at Progesterone receptor came out at 106 nM; on Glucocorticoid receptor it was 28 nM; with HFF [1], 78 nM; in [3], 350 nM. The compound further displayed an Efficacy with HFF [2] of 48%.
`COc1ccc(F)cc1C(C)(C)CC(O)(Cn1cnc(=O)c2ccccc21)C(F)(F)F` (stereo unspecified): the IC50 was greater than 2000 nM at Progesterone receptor, 690 nM on Glucocorticoid receptor and greater than 2000 nM in assay [3].
Regarding `COc1ccc(F)cc1C(C)(C)CC(O)(Cn1cc(C)nc1C)C(F)(F)F` (stereo unspecified), the results for the IC50 (at Progesterone receptor; against Glucocorticoid receptor; in [3]) were greater than 2000 nM, 650 nM and 620 nM, respectively.
On to `COc1ccc(F)cc1C(C)(C)CC(O)(Cn1ccc(=O)c2ncccc21)C(F)(F)F` (stereo unspecified), for which the IC50 at Progesterone receptor was greater than 2000 nM; against Glucocorticoid receptor it was 77 nM; in the assay on HFF [1], 56 nM; in assay [3], 1100 nM. Also, the Efficacy in the assay with HFF [6] amounted to 41%; in the assay on HFF [2], 78%.
Take `Cc1ccc(O)cc1C(C)(C)CC(O)(Cn1ccc(=O)c2ccccc21)C(F)(F)F` (stereo unspecified): the IC50 at Progesterone receptor was greater than 2000 nM; against Glucocorticoid receptor, 780 nM; in assay [3] it was greater than 2000 nM.
Turning to `COc1ccc(F)cc1C(C)(C)CC(O)(Cn1cc(C)c(=O)c(C)c1)C(F)(F)F` (stereo unspecified), the EC50 with HFF [4] was 170 nM; in the assay on HeLa [5], greater than 2000 nM. The IC50 was greater than 2000 nM at Progesterone receptor, 120 nM against Glucocorticoid receptor, 53 nM in the assay on HFF [1] and 1900 nM in assay [3]. The Efficacy is given as 3% in the assay with HeLa [7], 77% in the assay on HFF [6] and 87% in the assay on HFF [2].
Consider `Cc1ccc(O)c(C(C)(C)CC(O)(Cn2ccc(=O)c3ccccc32)C(F)(F)F)c1` (stereo unspecified), for which the IC50 on Progesterone receptor worked out at 160 nM; at Glucocorticoid receptor, 8 nM; in the assay on HFF [1] it was 5.6 nM; in assay [3] it was 160 nM. In addition, the Efficacy in the assay on HFF [2] was 93%.
For the compound `COc1ccc(F)cc1C(C)(C)CC(O)(CN1C[C@H](C)O[C@@H](C)C1)C(F)(F)F` (stereo partly specified), the IC50 at Progesterone receptor is greater than 2000 nM; against Glucocorticoid receptor, 110 nM; in the assay on HFF [1], greater than 2000 nM; in assay [3] it was 1500 nM. The Efficacy with HFF [2] was determined as 41%.
In the case of `COc1ccc(F)cc1C(C)(C)CC(O)(CN1CCOCC1)C(F)(F)F` (stereo unspecified), the IC50 (on Progesterone receptor; against Glucocorticoid receptor; in [3]) was greater than 2000 nM throughout.
As to `COc1ccc(F)cc1C(C)(C)CC(O)(CN1CCC(=O)CC1)C(F)(F)F` (stereo unspecified), the IC50 on Progesterone receptor is greater than 2000 nM; against Glucocorticoid receptor it was 1400 nM; in [3], greater than 2000 nM.
With `CC(C)(CC(O)(Cn1ccc(=O)c2ccccc21)C(F)(F)F)c1ccc(F)cc1O` (stereo unspecified), the EC50 in the assay on HFF [4] was 17 nM; in the assay with HeLa [5] it was 15 nM. The IC50 at Progesterone receptor was 340 nM; on Glucocorticoid receptor it was 3 nM; in assay [3], 880 nM. Further, the Efficacy in the assay with HeLa [7] is given as 35%; in the assay with HFF [6], 82%; in the assay with HFF [2] it was 88%.
As to `COc1ccc(F)cc1C(C)(C)CC(O)(Cn1cnc2ccccc21)C(F)(F)F` (stereo unspecified), the IC50 on Progesterone receptor is greater than 2000 nM; against Glucocorticoid receptor, 54 nM; in the assay with HFF [1], greater than 2000 nM; in [3], 775 nM. The Efficacy with HFF [2] is 15%.
As to `COc1ccc(F)cc1C(C)(C)CC(O)(CN1CCCc2ccccc21)C(F)(F)F` (stereo unspecified), the values for the IC50 (at Progesterone receptor; at Glucocorticoid receptor; in assay [3]) were greater than 2000 nM, 950 nM and 1600 nM, respectively.
As to `COc1ccc(F)cc1C(C)(C)CC(O)(Cn1ccc(=O)c2cnccc21)C(F)(F)F` (stereo unspecified), the IC50 on Progesterone receptor is greater than 2000 nM; at Glucocorticoid receptor, 34 nM; in the assay with HFF [1], 35 nM; in assay [3] it was 175 nM. Besides, the Efficacy was determined as 1% in the assay on HeLa [7], 39% in the assay on HFF [6] and 72% with HFF [2]. For the same compound, the EC50 in the assay with HeLa [5] is greater than 2000 nM.
`COc1ccc(F)cc1C(C)(C)CC(O)(Cn1ccnc1)C(F)(F)F` (stereo unspecified): the IC50 (on Progesterone receptor; against Glucocorticoid receptor; in [3]) was greater than 2000 nM throughout.
Turning to `CC(C)(CC(O)(Cn1ccc(=O)c2ccccc21)C(F)(F)F)c1ccccc1O` (stereo unspecified), the IC50 on Progesterone receptor is 555 nM; against Glucocorticoid receptor it was 6 nM; with HFF [1], 6 nM; in assay [3], 450 nM. In the assay on HFF [2], the Efficacy was 90%.
On to `Cc1noc(=O)c2ccc(NC(=O)C(O)(CC(C)(C)c3cccc4c3OCC4)C(F)(F)F)cc12` (stereo unspecified), for which the results for the EC50 in the assay on HFF [4] and in the assay with HeLa [5] were 91 nM and greater than 2000 nM, respectively. In addition, the Efficacy in the assay with HeLa [7] turned out to be 14%; in the assay on HFF [6] it was 56%; in the assay on HFF [2], 80%. For the same compound, the IC50 in the assay with HFF [1] turned out to be 59 nM; in [3] it was 38 nM.
